Source: US7994185B2, “Benzene sulfonamide thiazole and oxazole compounds” (Glaxo Smith Kline LLC, priority 2008, dated 2011)
Counter-ions that a name gives are not always drawn. Like-named read-outs stand apart in the source and are kept apart here.

Key:
[1] = tested on: Human melanoma cancer cells (SK-MEL-28); assay: Cell growth inhibition assay (CellTiter-Glo), SK-MEL-28; format: cell-based; details: SK-MEL-28, Table 3b, later runs, average for the one or more runs, categorized, read-out: IC50 for SK-MEL-28
[2] = biological target: T1, BRAFV600E full-length (amino acids 2-766) (Homo sapiens, UniProt P15056, V600E); assay: B-Raf Accelerated MEK ATPase assay (BRAMA); format: biochemical; details: categorized
T1 construct: His6-tagged BRAFV600E full-length (amino acids 2-766); His6; made in house; host or cells: baculovirus expression system (insect cells)
T1 sequence (P15056 2-766 V600E): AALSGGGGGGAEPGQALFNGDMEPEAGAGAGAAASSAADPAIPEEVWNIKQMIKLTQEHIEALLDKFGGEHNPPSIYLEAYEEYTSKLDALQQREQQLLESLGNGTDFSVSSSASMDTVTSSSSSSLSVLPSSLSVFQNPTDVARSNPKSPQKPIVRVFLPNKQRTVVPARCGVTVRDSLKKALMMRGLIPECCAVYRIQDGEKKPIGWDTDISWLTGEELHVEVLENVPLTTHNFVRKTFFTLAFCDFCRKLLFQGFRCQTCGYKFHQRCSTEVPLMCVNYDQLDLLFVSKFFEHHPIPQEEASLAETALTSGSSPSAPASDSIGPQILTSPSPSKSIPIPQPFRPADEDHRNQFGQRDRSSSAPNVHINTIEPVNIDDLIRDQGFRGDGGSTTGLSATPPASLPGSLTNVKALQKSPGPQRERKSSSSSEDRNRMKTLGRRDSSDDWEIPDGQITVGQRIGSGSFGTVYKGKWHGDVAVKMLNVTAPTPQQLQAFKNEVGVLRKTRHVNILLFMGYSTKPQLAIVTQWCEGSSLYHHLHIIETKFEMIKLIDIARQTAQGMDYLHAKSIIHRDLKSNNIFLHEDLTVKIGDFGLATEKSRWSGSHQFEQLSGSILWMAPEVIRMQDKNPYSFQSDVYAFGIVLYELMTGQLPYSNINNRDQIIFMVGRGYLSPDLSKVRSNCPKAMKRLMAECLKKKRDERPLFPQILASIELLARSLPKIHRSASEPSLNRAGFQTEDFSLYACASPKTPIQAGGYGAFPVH
Method: Compounds of the present invention were tested for B-Raf protein serine kinase inhibitory activity in a B-Raf Accelerated MEK ATPase assay (BRAMA). […] The BRAMA assay is a high sensitivity assay which measures an intrinsic MEK-mediated ATP hydrolysis uncoupled from downstream ERK phosphorylation by coupling the formation of ADP to NADH oxidation through the enzymes pyruvate kinase and lactate dehydrogenase. When ADP production is initiated by addition of catalytic amounts of an activated Raf enzyme and non-phosphorylated MEK, one observes robust ADP production concomitant with Raf-mediated phosphorylation of MEK. The method is disclosed in: C. Rominger, M. Schaber, E. May. Assay for B-Raf Activity Based on Intrinsic MEK ATPase Activity.

[3] = B-Raf pIC50, Table 1b, later runs, average pIC50 for the one or more runs
[4] = B-Raf Activity, Table 1a, highest pIC50 for the one or more runs
[5] = Table 1b, later runs, average pIC50 for the one or more runs, read-out: B-Raf pIC50 (converted)

Structure (SMILES): Nc1nccc(-c2sc(C3CCOCC3)nc2-c2cccc(NS(=O)(=O)c3ccoc3)c2Cl)n1 [Example 265, N-{3-[5-(2-amino-4-pyrimidinyl)-2-(tetrahydro-2H-pyran-4-yl)-1,3-thiazol-4-yl]-2-chlorophenyl}-3-furansulfonamide]
- IC50 [1]: < 0.1 µM
- IC50 [2, 3]: ≤ 0.00316 µM

Structure (SMILES): CC(C)(C)c1nc(-c2cccc(NS(=O)(=O)c3cc(F)ccc3F)c2F)c(-c2ccnc(N)n2)o1 [Example 297, N-{3-[5-(2-amino-4-pyrimidinyl)-2-(1,1-dimethylethyl)-1,3-oxazol-4-yl]-2-fluorophenyl}-2,5-difluorobenzenesulfonamide]
- IC50 [2, 3]: ≤ 0.00316 µM

Structure (SMILES): CC(C)c1nc(-c2ccc(F)c(NS(=O)(=O)c3cccc(F)c3)c2)c(-c2ccnc(N)n2)s1 [Example 84, N-{5-[5-(2-Amino-4-pyrimidinyl)-2-(1-methylethyl)-1,3-thiazol-4-yl]-2-fluorophenyl}-3-fluorobenzenesulfonamide]
- IC50 [2, 4]: 0.1 to 1 µM
- IC50 [2, 3]: 0.0316 to 1 µM

Structure (SMILES): CC(C)(C)c1nc(-c2cccc(NS(=O)(=O)c3cc(F)ccc3F)c2)c(-c2ccnc(N)n2)s1 [Example 116, N-{3-[5-(2-Amino-4-pyrimidinyl)-2-(1,1-dimethylethyl)-1,3-thiazol-4-yl]phenyl}-2,5-difluorobenzenesulfonamide]
- IC50 [2, 4]: < 0.1 µM
- IC50 [2, 5]: 0.00316 to 0.0316 µM

Structure (SMILES): CC(C)(N)c1nc(-c2cccc(NS(=O)(=O)c3ccoc3)c2F)c(-c2ccnc(N)n2)s1 [Example 312, N-{3-[2-(1-amino-1-methylethyl)-5-(2-amino-4-pyrimidinyl)-1,3-thiazol-4-yl]-2-fluorophenyl}-3-furansulfonamide]
- IC50 [2, 3]: ≤ 0.00316 µM

Structure (SMILES): CC(C)(N)c1nc(-c2cccc(NS(=O)(=O)c3c(F)cccc3F)c2F)c(-c2ccnc(N)n2)s1 [Example 313, N-{3-[2-(1-amino-1-methylethyl)-5-(2-amino-4-pyrimidinyl)-1,3-thiazol-4-yl]-2-fluorophenyl}-2,6-difluorobenzenesulfonamide]
- IC50 [2, 5]: 0.00316 to 0.0316 µM

Structure (SMILES): Cn1ccc(S(=O)(=O)Nc2cccc(-c3nc(C(C)(C)C)sc3-c3ccnc(N)n3)c2F)n1 [Example 288, N-{3-[5-(2-amino-4-pyrimidinyl)-2-(1,1-dimethylethyl)-1,3-thiazol-4-yl]-2-fluorophenyl}-1-methyl-1H-pyrazole-3-sulfonamide hydrochloride]
- IC50 [2, 3]: 0.0316 to 1 µM

Structure (SMILES): O=C(NCc1nccc(-c2sc(N3CCOCC3)nc2-c2cccc(NS(=O)(=O)c3cc(F)ccc3F)c2F)n1)C1CCCC1 [Example 274, N-({4-[4-(3-{[(2,5-difluorophenyl)sulfonyl]amino}-2-fluorophenyl)-2-(4-morpholinyl)-1,3-thiazol-5-yl]-2-pyrimidinyl}methyl)cyclopentanecarboxamide]
- IC50 [2, 5]: 0.00316 to 0.0316 µM

Structure (SMILES): C[C@@H](O)CNc1nccc(-c2sc(C3CCOCC3)nc2-c2cccc(NS(=O)(=O)c3ccoc3)c2F)n1 [Example 302, N-{2-fluoro-3-[5-(2-{[(2R)-2-hydroxypropyl]amino}-4-pyrimidinyl)-2-(tetrahydro-2H-pyran-4-yl)-1,3-thiazol-4-yl]phenyl}-3-furansulfonamide]
- IC50 [2, 3]: ≤ 0.00316 µM

Structure (SMILES): CC(C)c1nc(-c2ccc(F)c(NS(=O)(=O)c3c(F)cccc3F)c2)c(-c2ccnc(NCCS(C)(=O)=O)n2)s1 [Example 8, 2,6-Difluoro-N-{2-fluoro-5-[2-(1-methylethyl)-5-(2-{[2-(methylsulfonyl)ethyl]amino}-4-pyrimidinyl)-1,3-thiazol-4-yl]phenyl}benzenesulfonamide]
- IC50 [2, 4]: < 0.1 µM
- IC50 [2, 5]: 0.00316 to 0.0316 µM

Structure (SMILES): Cc1nccc(-c2sc(C(C)(C)CO)nc2-c2cccc(NS(=O)(=O)c3c(F)cccc3F)c2F)n1 [Example 316, 2,6-difluoro-N-{2-fluoro-3-[2-(2-hydroxy-1,1-dimethylethyl)-5-(2-methyl-4-pyrimidinyl)-1,3-thiazol-4-yl]phenyl}benzenesulfonamide]
- IC50 [2, 5]: 0.00316 to 0.0316 µM

Structure (SMILES): C=Cc1nccc(-c2sc(N3CCOCC3)nc2-c2cccc(NS(=O)(=O)c3cc(F)ccc3F)c2F)n1 [Example 277, N-{3-[5-(2-ethenyl-4-pyrimidinyl)-2-(4-morpholinyl)-1,3-thiazol-4-yl]-2-fluorophenyl}-2,5-difluorobenzenesulfonamide]
- IC50 [2, 5]: 0.00316 to 0.0316 µM

Structure (SMILES): CC(C)(C)c1nc(-c2cccc(NS(=O)(=O)c3ccoc3)c2F)c(-c2ccnc(N)n2)o1 [Example 299, N-{3-[5-(2-amino-4-pyrimidinyl)-2-(1,1-dimethylethyl)-1,3-oxazol-4-yl]-2-fluorophenyl}-3-furansulfonamide]
- IC50 [2, 3]: ≤ 0.00316 µM

Structure (SMILES): C[C@@H](O)CNc1nccc(-c2sc(C(C)(C)C)nc2-c2cccc(NS(=O)(=O)c3c(F)cccc3F)c2F)n1 [Example 290, N-{3-[2-(1,1-dimethylethyl)-5-(2-{[(2R)-2-hydroxypropyl]amino}-4-pyrimidinyl)-1,3-thiazol-4-yl]-2-fluorophenyl}-2,6-difluorobenzenesulfonamide]
- IC50 [2, 3]: ≤ 0.00316 µM

Structure (SMILES): C[C@H](O)CNc1nccc(-c2sc(C3CCOCC3)nc2-c2cccc(NS(=O)(=O)c3ccoc3)c2F)n1 [Example 303, N-{2-fluoro-3-[5-(2-{[(2S)-2-hydroxypropyl]amino}-4-pyrimidinyl)-2-(tetrahydro-2H-pyran-4-yl)-1,3-thiazol-4-yl]phenyl}-3-furansulfonamide]
- IC50 [2, 3]: ≤ 0.00316 µM

Structure (SMILES): Cc1nccc(-c2sc(C3CCNCC3)nc2-c2cccc(NS(=O)(=O)c3c(F)cccc3F)c2F)n1 [Example 321, 2,6-difluoro-N-{2-fluoro-3-[5-(2-methyl-4-pyrimidinyl)-2-(4-piperidinyl)-1,3-thiazol-4-yl]phenyl}benzenesulfonamide]
- IC50 [2, 5]: 0.00316 to 0.0316 µM

Structure (SMILES): CC(C)(C)c1nc(-c2cccc(NS(=O)(=O)c3c(F)cccc3F)c2F)c(-c2ccnc(NC3CC3)n2)s1 [Example 294, N-{3-[5-[2-(cyclopropylamino)-4-pyrimidinyl]-2-(1,1-dimethylethyl)-1,3-thiazol-4-yl]-2-fluorophenyl}-2,6-difluorobenzenesulfonamide]
- IC50 [2, 3]: ≤ 0.00316 µM

Structure (SMILES): Cc1nccc(-c2sc(C3CCOCC3)nc2-c2cccc(NS(=O)(=O)c3ccoc3)c2F)n1 [Example 314, N-{2-fluoro-3-[5-(2-methyl-4-pyrimidinyl)-2-(tetrahydro-2H-pyran-4-yl)-1,3-thiazol-4-yl]phenyl}-3-furansulfonamide]
- IC50 [2, 5]: 0.00316 to 0.0316 µM
